These results are taken from US20250130239A1, “PROTEIN DEGRADER” (University of Dundee, priority 2021, published 2025).

One experiment has as its target T1, BromoTag-Brd2 (Homo sapiens, UniProt O60885+P40337, L387A).
T1 construct: comprising residues 368-440 of human Brd4; Brd2 (endogenous protein, fusion partner in the same polypeptide); eGFP-P2A (upstream marker in the knock-in cassette) (N, cleaved yes); expressed in transfected cells; host or cells: HEK293, heterozygous CRISPR knock-in at the endogenous BRD2 locus
Nature of the experiment: Dose-response degradation assay (western blot, 6 h) in heterozygous BromoTag-Brd2 HEK293 cells. Type of experiment: cell-based. Particulars: for pDC50: second-generation B&H-PROTACs (diastereomeric mixtures), mean (±S.E) of three experiments; for hook effect: at the higher concentrations used, 1-10 μM. As to the method:
Dose-response Degradation Assays. All dose-response degradation assays were performed on the genotype verified heterozygous BromoTag-Brd2 HEK293 cell line. Heterozygous BromoTag-Brd2 HEK293 cells were plated at a density of 5×10^5 cells per well of a six healthy plate a day before initiation of the titration experiment. PROTAC compounds were dissolved in DMSO at a concentration of 10 mM, from these stock concentrations, PROTAC compounds were diluted to appropriate concentrations using DMSO in the range of 10 μM-1 nM. […] Control compounds such as MZ1, cis-MZ1 were similarly dissolved in DMSO to the appropriate concentration. […] Cells were washed twice with PBS before being harvested.
Western Blotting. […] The membranes were blocked for 1 h prior to incubation with the primary antibodies using 5% Milk TBST. […] Following overnight incubation with the primary antibodies at 4° C., the membranes were incubated with secondary antibodies (Anti-rabbit, Abcam AB216773, 1:5000 or anti-mouse, Abcam AB216774, 1:5000) and hFAB™ Rhodamine Anti-Tubulin Antibody (Biorad, 12004165, 1:10000) for one h and then imaged with a Bio-Rad imager (LI-COR Biosciences). All western blots were analysed for band intensities using Image Lab from Bio-Rad (LI-COR, Biosciences). The data extracted from these blots were then plotted and analysed using Prism (v. 8.2.0, GraphPad).

Experiment [1] has as its system untagged Brd2 and endogenous Brd3 and Brd4. Nature of the experiment: Off-target degradation of endogenous BET proteins (western blot) in BromoTag-Brd2 HEK293 cells. Type of experiment: cell-based, human. The conditions noted are these: 1 nM to 10 μM; 6 h. As to the method: Dose-response Degradation Assays. All dose-response degradation assays were performed on the genotype verified heterozygous BromoTag-Brd2 HEK293 cell line. Heterozygous BromoTag-Brd2 HEK293 cells were plated at a density of 5×10^5 cells per well of a six healthy plate a day before initiation of the titration experiment. PROTAC compounds were dissolved in DMSO at a concentration of 10 mM, from these stock concentrations, PROTAC compounds were diluted to appropriate concentrations using DMSO in the range of 10 μM-1 nM. The compounds were then added to a 2 mL of DMEM (Invitrogen, Carlsebad, CA, USA) supplemented with 10% (v/v) Fetal bovine serum (FBS) (Thermo Fisher, Waltham, MA, USA) and 1% (v/v) penicillin/streptomycin (pen/strep) (#15140122, Thermo Fisher, Waltham, MA, USA) and added to the cells at initiation of the experiment. Control compounds such as MZ1, cis-MZ1 were similarly dissolved in DMSO to the appropriate concentration. All titration experiment were performed for a total of 6 hours prior to being harvested and were kept at 37° C., 5% CO2, and 95% humidity once treatment was applied until right before harvesting. Cells were washed twice with PBS before being harvested.
Western Blotting. […] Total protein quantity was determined using the BCA protein assay (#23225, Pierce, Rockford, Illinois). Protein concentration was determined using the BCA assay (ThermoFisher Scientific, 23225). […] All western blots were analysed for band intensities using Image Lab from Bio-Rad (LI-COR, Biosciences). The data extracted from these blots were then plotted and analysed using Prism (v. 8.2.0, GraphPad).
Development of a Knock-in Cell Line with BromoTag fused to endogenous Brd2 using CRISPR. […] To this end, the endogenous BET family protein Brd2 was chosen as a model target, due to the availability of well-established antibody for Brd2 detection, and expression of a single protein isoform as well detected band in the western blot (Filippakopoulos, P.; Knapp, S., Nat Rev Drug Discov. 2014, 13 (5), 337-356). […]

The mark [2] stands for this setting: 6 h, range over the two antibodies.
The mark [3] stands for this setting: Ab: Brd2, second-generation B&H-PROTACs, 6 h.
Where [4] appears, read: Ab: Brd4^BD2 L387A, second-generation B&H-PROTACs, 6 h.

Where two headings read alike, the source gives them in different places.

T1 sequence (P40337 whole entry, other chains not shown, the tested form may be a part): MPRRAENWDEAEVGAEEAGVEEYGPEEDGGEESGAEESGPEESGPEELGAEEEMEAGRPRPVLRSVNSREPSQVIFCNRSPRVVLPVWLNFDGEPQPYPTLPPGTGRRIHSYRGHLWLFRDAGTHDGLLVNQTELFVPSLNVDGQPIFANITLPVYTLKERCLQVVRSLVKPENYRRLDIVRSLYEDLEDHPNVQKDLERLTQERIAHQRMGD

Compound `Cc1ncsc1-c1ccc([C@H](C)NC(=O)[C@@H]2C[C@@H](O)CN2C(=O)[C@@H](NC(=O)COCCCOCCNC(=O)[C@H](C)[C@@H]2N=C(c3ccc(Cl)cc3)c3c(sc(C)c3C)-n3c(C)nnc32)C(C)(C)C)cc1` (relative stereo) [ME-ARV-771 (20), (2S,4R)-1-((2S,15R*)-(tert-butyl)-15-((S*)-4-(4-chlorophenyl)-2,3,9-trimethyl-6H-thieno[3,2-f][1,2,4]triazolo[4,3-a][1,4]diazepin-6-yl)-4,14-dioxo-6,10-dioxa-3,13-diazahexadecanoyl)-4-hydroxy-N—((S)-1-(4-(4-methylthiazol-5-yl)phenyl)ethyl)pyrrolidine-2-carboxamide] displayed a DC50 at BromoTag-Brd2 (setting [2]) of 320 to 400 nM. Also, the pDC50 at BromoTag-Brd2 (Ab: Brd2, 6 h) is reported as 6.4 ± 0.6; at BromoTag-Brd2 (Ab: Brd4^BD2 L387A, 6 h) it was 6.5 ± 0.4. Besides, the “Dmax (%)” value was found to be 60% on BromoTag-Brd2 (setting [3]) and 70% at BromoTag-Brd2 (setting [4]).

Turning to `CC[C@@H](C(=O)NCCOCCOCCOCC(=O)N[C@H](C(=O)N1C[C@H](O)C[C@H]1C(=O)NCc1ccc(-c2scnc2C)cc1)C(C)(C)C)[C@@H]1N=C(c2ccc(Cl)cc2)c2c(sc(C)c2C)-n2c(C)nnc21` (relative stereo) [ET-MZ1 (19), (2S,4R)-1-((2S,17R*)-(tert-butyl)-17-((S*)-4-(4-chlorophenyl)-2,3,9-trimethyl-6H-thieno[3,2-f][1,2,4]triazolo[4,3-a][1,4]diazepin-6-yl)-4,16-dioxo-6,9,12-trioxa-3,15-diazanonadecanoyl)-4-hydroxy-N-(4-(4-methylthiazol-5-yl)benzyl)pyrrolidine-2-carboxamide], the “off-target degradation of untagged Brd2 or the other endogenous BET proteins” value in experiment [1] was “no observable off-target degradation”.

Take `CC[C@@H](C(=O)OCCOCCOCCOCC(=O)N[C@H](C(=O)N1C[C@H](O)C[C@H]1C(=O)NCc1ccc(-c2scnc2C)cc1)C(C)(C)C)[C@@H]1N=C(c2ccc(Cl)cc2)c2c(sc(C)c2C)-n2c(C)nnc21` (relative stereo) [ET-OMZ1 (23), (S)-13-((2S,4R)-4-hydroxy-2-((4-(4-methylthiazol-5-yl)benzyl)carbamoyl)pyrrolidine-1-carbonyl)-14,14-dimethyl-11-oxo-3,6,9-trioxa-12-azapentadecyl (R*)-2-((S*)-4-(4-chlorophenyl)-2,3,9-trimethyl-6H-thieno[3,2-f][1,2,4]triazolo[4,3-a][1,4]diazepin-6-yl)butanoate]: at BromoTag-Brd2 (setting [2]), the DC50 lay within 13 to 80 nM. The pDC50 on BromoTag-Brd2 (Ab: Brd2, 6 h) turned out to be 7.9 ± 0.2; at BromoTag-Brd2 (Ab: Brd4^BD2 L387A, 6 h) it was 7.1. In addition, the Dmax at BromoTag-Brd2 (HEK293, Ab: Brd4^BD2 L387A, second-generation B&H-PROTACs, 6 h) is 90%; on BromoTag-Brd2 (HEK293, read-out: Dmax, BromoTag-Brd2, 6 h), greater than 75%. The hook effect result on BromoTag-Brd2 (6 h) is reported as “strong onset of the hook effect”. In addition, the “off-target degradation of untagged Brd2 or the other endogenous BET proteins” value in experiment [1] was “no observable off-target degradation”.

With `CC[C@@H](C(=O)NCCOCCCOCC(=O)N[C@H](C(=O)N1C[C@H](O)C[C@H]1C(=O)N[C@@H](C)c1ccc(-c2scnc2C)cc1)C(C)(C)C)[C@@H]1N=C(c2ccc(Cl)cc2)c2c(sc(C)c2C)-n2c(C)nnc21` (relative stereo) [ET-ARV-771 (21), (2S,4R)-1-((2S,15R*)-(tert-butyl)-15-((S*)-4-(4-chlorophenyl)-2,3,9-trimethyl-6H-thieno[3,2-f][1,2,4]triazolo[4,3-a][1,4]diazepin-6-yl)-4,14-dioxo-6,10-dioxa-3,13-diazaheptadecanoyl)-4-hydroxy-N—((S)-1-(4-(4-methylthiazol-5-yl)phenyl)ethyl)pyrrolidine-2-carboxamide], at BromoTag-Brd2 (6 h), the DC50 was roughly 1000 nM; the “Dmax, BromoTag-Brd2” value is given as less than 70%; the hook effect result was “strong hook effect”. Moreover, the pDC50 at BromoTag-Brd2 (Ab: Brd2, 6 h) turned out to be 5.7 ± 1.8. Further, on BromoTag-Brd2 (setting [3]), the “Dmax (%)” value was 51%. Further, the pDC50 on BromoTag-Brd2 (Ab: Brd4^BD2 L387A, 6 h) was 6.1 ± 0.3. In addition, the “Dmax (%)” value on BromoTag-Brd2 (setting [4]) came to 69%.
